Measured values published in patent US9220746B2, “Compounds and methods for treating bone disorders and controlling weight” (The University of North Carolina at Chapel Hill, priority 2009, dated 2015).
Where no end group is shown, it is not given here.

Key:
metacarpals = assay: Metacarpal culture ex vivo (calcein incorporated area, length, width); format: cell-based, mouse; conditions: 10 days, IGFBP2 200 ng/ml, peptides 2 μg/ml, vs PBS; for calcein incorporated area of metacarpals: IGF-1 20 ng/ml
Protocol: FIG. 2. The heparin binding domain of IGFBP2 enhances periosteal expansion of metacarpals ex vivo. Metacarpals were collected from day 1 male mouse, and treated with osteogenic media with IGFBP2 (200 ng/ml) or the heparin-binding domain peptide (HBD-peptide) (2 μg/ml) in the presence or absence of IGF-1 (20 ng/ml) for 10 days. Bones were labeled with calcein (500 ng/ml) and calcein incorporated area was visualized (a) and longitudinal length of calcein incorporated area was quantified (b). Alcian blue and Von Kossa double staining was performed (c) and length and width of metacarpals were quantified (d). Statistical difference was analyzed by ANOVA followed by Bonferroni post-hoc test. Figures shown represent at least 3 independent experiments. Values are expressed as the mean±SEM (n=3-4). ^a; <0.05 vs PBS, ^b; <0.01 vs PBS, ^c; <0.001 vs PBS, ^d; <0.01 vs HBD, ^e; <0.05 vs IGF-I, ^f; <0.05 vs HBD.
Metacarpals were isolated from Igfbp2^−/− mice at 1-day old and incubated in DMEM containing 0.5% BSA, 50 μg/ml ascorbic acid and 1 mM β-glycerol phosphate for 10 days^54. Stimulants were added to culture media from day 1. At day 10, metacarpals were incubated in media containing calcein (500 ng/ml) for 2 hours for staining of calcium deposition, and images were obtained. Then, bones were fixed with 4% PFA, embedded in paraffin, and processed for Alcian blue and von Kossa double staining.

PTEN = assay: Western blot analysis of PTEN expression; format: cell-based, mouse; conditions: primary calvarial osteoblasts, overnight treatment
Protocol: FIG. 5. The heparin-binding domain of IGFBP2 suppresses PTEN expression. a and b, Igfbp2^−/− calvarial osteoblasts (COBs) were isolated, and treated with PBS, IGFBP-2 or pegylated heparin-binding domain peptide (PEG-HBD) in MEMα containing 0.1% BSA overnight. Whole cell lysate was collected and expression of PTEN and α-actin was analyzed by Western blot analysis. Expression levels of PTEN were quantified by normalizing to the expression levels of α-actin. c and d. COBs pre-incubated with PBS, IGFBP-2 or PEG-HBD overnight were treated with IGF-I (100 ng/ml) for 15 minutes. Whole cell lysate was collected and expression of pSer473-Akt and Akt was analyzed by Western blot analysis. Expression levels of pSer473-Akt were quantified by normalizing to the expression levels of Akt. Figures shown represent at least 3 independent experiments. Values are expressed as the mean±SEM (n=3-4). Statistical difference was analyzed by Student's t-test. *; <0.001, **; <0.01, ^†; <0.05.
FIG. 9. […] Igfbp2^+/+ calvarial osteoblasts were treated with PBS, control peptide, or heparin-binding domain peptide (HBD-peptide) overnight, and whole cell lysate was collected. PTEN expression was analyzed using western blot analysis (a), and quantitative analysis was performed (b). Values were expressed as the mean±SEM (n=3). Statistical significance was analyzed by ANOVA followed by Bonferroni post-hoc test. ^a; p<0.01 vs. PBS, ^b; p<0.01 vs. control peptide.
To prepare whole cell lysates, cells were solubilized in RIPA buffer^55. For cytosolic fraction, cells were solubilized with hypotonic buffer containing protease and phosphatase inhibitors (10 mM Tris, 0.2 mM MgCl2, pH 7.4) and kept on ice for 10 min. Cell lysates were mixed with sucrose buffer (final concentration; 25 mM Sucrose, 0.1 mM EDTA) and centrifuged at 20,000×g for 1 hour. Supernatant was used as cytosolic fraction. To prepare the membrane fraction, cells were solubilized with PBS containing protease and phosphatase inhibitors. The lysates were frozen at −80° C. for 1 h and thawed at room temperature. After three cycles, they were centrifuged at 13,000×g for 25 min. The pellet was suspended with membrane protein isolation buffer (20 mM Tris-HCl; 150 mM NaCl; 1 mM EDTA; 1 mM EGTA; and 1% Triton X-100, pH 7.5) containing protease and phosphatase inhibitors. Protein concentration was assessed by BCA protein assay kit (Thermo Scientific) and equal amounts of sample were separated by SDS-PAGE and transferred electrophoretically to nitrocellulose membranes. Membranes were blocked in 5% BSA in Tris-buffered saline. […]

Igfbp2−/− COBs and BMSCs = assay: In vitro osteoblastogenesis of calvarial osteoblasts and bone marrow stromal cells (ALP, Alizarin Red staining); format: cell-based, mouse; conditions: 2 μg/ml, osteogenic media
Protocol: FIG. 1. The heparin-binding domain of IGFBP2 enhances osteoblastogenesis in vitro. a. Von Kossa staining was performed using tibia from 8 weeks old Igfbp2^+/+ and Igfbp2^−/− male mouse. b. Calvarial osteoblasts (COBs) were harvested from day 7 old male Igfbp2^+/+ and Igfbp2^−/− male mouse, and treated with osteogenic media in the presence of 2.5% FCS. At day 7, alkaline phosphatase (ALP) staining was performed. c and d. COBs and Bone marrow stromal cells (BMSCs) from Igfbp2^−/− mouse were treated with osteogenic media with pegylated heparin-binding domain peptide (PEG-HBD) in the presence of 10% FCS. ALP staining (day 7) and Alizarin Red staining (day 14) were performed (c). RNA was isolated at day 14 from BMSCs and expression of ALP, osteocalcin (OC) and Runx2 was analyzed by real-time PCR. Figures shown represent at least 3 independent experiments (n=3). Statistical difference was analyzed by student's t test. *; p<0.05.
FIG. 7. […] Igfbp2^−/− calvarial osteoblasts (COBs) were cultured with osteogenic media with PBS, control peptide (2 μg/ml) or heparin binding domain peptide (HBD-peptide) (2 μg/ml). Osteoblastogenesis was evaluated by Alizarin Red staining.
Neonatal calvarial osteoblasts were collected from 7-10 day old mice as previously described^53. Briefly, calvariae were digested 5 times with collagenase P and Trypsin. Cells released from digests 2 through 5 were collected as primary calvarial osteoblasts, and maintained in DMEM supplemented with 10% FCS and non-essential amino acids. Osteoblastogenesis of primary calvarial osteoblasts was carried out by treating cells with 4 mM β-glycerophosphate and 50 μg/ml ascorbic acid in αMEM. Bone marrow stromal cells (BMSCs) were harvested from femurs and tibias of 8 weeks old mice as described previously^10. Osteoblastogenesis of BMSCs was induced by the treatment with osteogenic media consisting of αMEM containing 10% FCS, 8 mM β-glycerophosphate, and 50 μg/ml ascorbic acid.

β-catenin = assay: Western blot analysis of β-catenin (cytosolic accumulation, pSer552); format: cell-based, mouse
Protocol: FIG. 6. The heparin-binding domain of IGFBP-2 stimulates cytosolic accumulation and Ser552 phosphorylation of β-catenin by IGF-I. a, MC3T3-E1 cells were serum-starved over-night and treated with IGF-I at the indicated concentration for 6 hours. Expression of β-catenin and α-actin was analyzed by Western blot analysis with membrane and cytosolic fraction. b, Igfbp2^−/− calvarial osteoblasts (COBs) were serum-starved over-night with PBS or pegylated heparin-binding domain peptide (PEG-HBD) and then treated with IGF-I (100 ng/ml) for 6 hours. Expression of β-catenin was analyzed by Western blot analysis with cytosolic fraction and quantified by normalizing to α-actin (n=3). c, MC3T3-E1 cells were serum-starved over-night and treated with IGF-I (100 ng/ml) for 15 min. Expression of pSer552-β-catenin, β-catenin, pSer473-Akt, Akt and α-actin was analyzed by Western blot analysis with whole cell lysates. d, Igfbp2^−/− COBs were serum-starved over-night with PBS or PEG-HBD and then treated with IGF-I (100 ng/ml) for 15 min. Expression of pSer552-β-catenin was analyzed by Western blot analysis with whole cell lysates and quantified by normalizing to β-catenin (n=3). Figures shown represent at least 3 independent experiments. Values are expressed as the mean±SEM. Statistical difference was analyzed by Student's t-test. *; <0.001, **; <0.01, ^†; <0.05. […]

[1] = system: cells derived from bone marrow aspirates or calvaria; assay: Osteoblast differentiation, alkaline phosphatase and von kossa stain; format: cell-based, mouse
Protocol: For measurement of osteoblast differentiation, the cells are also derived from the same bone marrow aspirates. However in some experiments they were derived from calvaria obtained from newborn animals. Cells are plated in 6 well plates at […] in alpha MEM with 10% fetal bovine serum. Media was changed on day 1 and 3. At day 3 the cells received differentiation medium, which is alphaMEM containing 10% fetal calf serum, 8 mM glycerol phosphate and 50 ug/ml ascorbic acid. Media subsequently is changed every 2 days until termination of the experiment, generally at 18 days. In some experiments fetal calf serum concentration was lowered to either 5% or 2%. IGFBP-2 200 ng/ml was added to some cultures or the IGFBP-2 peptide at concentrations between 2 ng/ml and 2 mcg/ml. To determine osteoblast differentiation, the cells were fixed with 4% paraformaldehyde and then stained for alkaline phosphatase. The cells were then counterstained with von kossa stain to detect mineralization.

IGFBP-2−/− mice = assay: In vivo rescue of the bone phenotype in IGFBP-2−/− mice (micro CT); design: species or system mouse
Protocol: IGFBP-2−/− mice have reduced bone mineral density, reduced cortical and trabecular thickness and reduced bone turnover, both formation and resorption. To determine if the 13 amino acid peptide was active systemically, a pegylated preparation was prepared in order to extend halflife. This preparation was then injected into the mice. Mice between the ages of 16 and 20 weeks were utilized. These mice are known to have a major bone phenotype. The peptide was injected at a dose of 50 mcg of peptide plus conjugate, that is the total molecular weight of PEG plus the peptide, which is approximately 23,000 molecular weight was injected intraperitoneally five days per week for three weeks. Six mice were injected in each group. The major measure of bone density is the bone volume over total volume as calculated by micro CT analysis. This measures the amount of total bone within a given space. Control animals receive PBS injections.

adherent macrophages = assay: Osteoclast differentiation, tartrate resistant acid phosphatase staining; format: cell-based, mouse; conditions: osteoclast differentiation
From the text: The method for osteoclast differentiation is as follows: Balb/c mice in which the IGFBP-2 gene had been deleted (see V. DeMambro et al, Endocrinology, 149(5): 2051-2061 (2007)) were anesthetized and sacrificed using cervical dislocation. The femurs from each mouse were dissected free of soft tissue and the bone marrow aspirated by needle puncture. Cells were removed sterile and resuspended in DMEM with 10% fetal calf serum. The cells were centrifuged at 700×g and the cell pellet resuspended in medium and plated in 24 well plates at a concentration of 5000 cells/cm^2. The plates that are used are low adherence plates that have no additives to facilitate cell adherence. Under these conditions macrophages will adhere while other cells will not. The media is supplemented with mCSF 20 ng/ml. After 3 days the cells are removed from the plate and the adherent macrophages are exposed to fresh media containing 10% FBS and mCSF. This is repeated again after 3 days and then after an additional 3 days cells are trypsinized and replated in fresh plates at 6×10^4 cells/cm. At this time RANK ligand, 50 ng/ml, is added, although in some experiments concentrations as low as 10 ng/ml were utilized. Medium is changed at 3 and 6 days and on day 7 cells are stained for tartrate resistant acid phosphatase, a marker of osteoclast differentiation. IGFBP-2 was added at concentrations between 50 ng/ml and 500 mcg/ml. The peptide was added at 20 or 200 ng/ml.
For tartrate resistant acid phosphatase staining, a 1% solution is prepared and incubated with the cells for 30 min at room temperature. Cultures are then washed and cell number determined by manual counting.

[2] = 50 mcg i.p. five days per week for three weeks

AALSLEEPAALAP (Synthetic control peptide) [control peptide for HBD-peptide, reference compound]
calcein incorporated area of metacarpals (metacarpals): no effect
width (and length) of metacarpals (metacarpals): comparable to the metacarpals treated with PBS
PTEN expression (PTEN): no effect on PTEN expression
mineralization of Igfbp2−/− COBs (Alizarin Red) compared to PBS (Igfbp2−/− COBs and BMSCs): did not enhance mineralization

IGF-I: insulin-like growth factor-I
calcein incorporated area of metacarpals (metacarpals): stimulated expansion of calcein incorporated area
Ser552 phosphorylation of β-catenin (β-catenin; IGF-I 100 ng/ml 15 min, MC3T3-E1 cells (IGF-I alone) or Igfbp2−/− COBs pre-treated with PEG-HBD): stimulated β-catenin phosphorylation on Ser552
cytosolic accumulation of β-catenin (β-catenin; IGF-I 6 hours, MC3T3-E1 cells (IGF-I alone) or Igfbp2−/− COBs pre-treated with PEG-HBD vs PBS): enhanced cytosolic accumulation of β-catenin

RKGFYKRKQCKPSRGKRK (IGFBP-5 heparin binding domain-containing peptide sequence) [HBD-BP5, reference compound]
calcein incorporated area of metacarpals (metacarpals): did not have any effect
width (and length) of metacarpals (metacarpals): did not have any effect
mineralization of Igfbp2−/− COBs (Alizarin Red) compared to PBS (Igfbp2−/− COBs and BMSCs): did not show any enhancement of mineralization

pegylated 13 amino acid peptide: peptide of SEQ ID NO: 1 N-terminally pegylated with methoxyPEG propinaldehyde molecular weight 20 kDa, 1 PEG per peptide ({methoxyPEG 20 kDa}-KHHLGLEEPKKLR)
biologic activity compared to the nonpegylated peptide [1]: equal biologic activity
PTEN in bones (biochemical analysis) (IGFBP-2−/− mice; [2]): downregulated
cortical thickness (IGFBP-2−/− mice; [2]): substantially increased
rescue of bone phenotype relative to normal (IGFBP-2−/− mice; [2]): ≤ 70%
BV/TV (bone volume over total volume) (IGFBP-2−/− mice; 50 mcg peptide plus conjugate i.p. five days per week for three weeks, normal 0.22, gene deletion 0.12): 0.18
biologic activity compared to the nonpegylated peptide (adherent macrophages): equal biologic activity
